Reference: the NIST ThermoML archive (doi:10.1021/je049559v)
“And” between values parts separate entries of the source, which are not always exact repeats. Identical values can stand only once. Numbers after ± are expanded uncertainties.

Conditions: Liquid; for viscosity: Capillary tube (Ostwald / Ubbelohde) method; for mass density: Vibrating tube method

COCOC [dimethoxymethane]
viscosity (218.09 K): 1.263 ± 0.024 mPa·s | viscosity (223.09 K): 1.099 ± 0.021 mPa·s | viscosity (228.1 K): 0.9649 ± 0.018 mPa·s | viscosity (228.11 K): 0.9648 ± 0.018 mPa·s | viscosity (233.1 K): 0.8557 ± 0.016 mPa·s and 0.8556 ± 0.016 mPa·s | mass density (233.16 K): 935.5 ± 2 kg/m3 | viscosity (238.11 K): 0.7648 ± 0.015 mPa·s | viscosity (243.14 K): 0.6886 ± 0.013 mPa·s | viscosity (243.15 K): 0.6885 ± 0.013 mPa·s | mass density (243.16 K): 923.8 ± 2 kg/m3 | viscosity (248.14 K): 0.6248 ± 0.012 mPa·s | viscosity (253.13 K): 0.5705 ± 0.011 mPa·s | viscosity (253.14 K): 0.5705 ± 0.011 mPa·s | mass density (253.16 K): 912.4 ± 2 kg/m3 | viscosity (258.12 K): 0.524 ± 0.01 mPa·s | viscosity (258.15 K): 0.5238 ± 0.01 mPa·s | viscosity (263.07 K): 0.4841 ± 0.0094 mPa·s | viscosity (263.09 K): 0.4839 ± 0.0094 mPa·s | mass density (263.15 K): 899.6 ± 2 kg/m3 | viscosity (268.09 K): 0.4489 ± 0.0087 mPa·s | viscosity (273.05 K): 0.4183 ± 0.0081 mPa·s | mass density (273.15 K): 886 ± 2 kg/m3 | viscosity (278.05 K): 0.3912 ± 0.0076 mPa·s | viscosity (283.1 K): 0.3669 ± 0.0072 mPa·s | mass density (283.15 K): 872.3 ± 2 kg/m3 | viscosity (288.17 K): 0.3452 ± 0.0067 mPa·s and 0.3451 ± 0.0067 mPa·s | viscosity (293.09 K): 0.3262 ± 0.0064 mPa·s | mass density (293.15 K): 858.1 ± 2 kg/m3 | viscosity (298.12 K): 0.3086 ± 0.0061 mPa·s | viscosity (298.13 K): 0.3086 ± 0.0061 mPa·s | viscosity (303.12 K): 0.2927 ± 0.0058 mPa·s | viscosity (303.13 K): 0.2927 ± 0.0058 mPa·s | mass density (303.15 K): 842.8 ± 2 kg/m3 | viscosity (308.16 K): 0.2781 ± 0.0055 mPa·s | viscosity (308.17 K): 0.2781 ± 0.0055 mPa·s | mass density (313.15 K): 827.9 ± 2 kg/m3 | viscosity (313.16 K): 0.2647 ± 0.0052 mPa·s | viscosity (318.16 K): 0.2524 ± 0.005 mPa·s | viscosity (318.17 K): 0.2524 ± 0.005 mPa·s | viscosity (323.15 K): 0.241 ± 0.0048 mPa·s and 0.2409 ± 0.0048 mPa·s | mass density (323.16 K): 814.1 ± 2 kg/m3 | viscosity (328.14 K): 0.2303 ± 0.0046 mPa·s | viscosity (333.14 K): 0.2202 ± 0.0044 mPa·s | viscosity (333.15 K): 0.2202 ± 0.0044 mPa·s | mass density (333.15 K): 800 ± 2 kg/m3 | viscosity (338.15 K): 0.2107 ± 0.0042 mPa·s | viscosity (343.15 K): 0.2017 ± 0.0041 mPa·s | mass density (343.15 K): 785.2 ± 2 kg/m3 | viscosity (348.16 K): 0.1931 ± 0.0039 mPa·s | viscosity (353.12 K): 0.185 ± 0.0037 mPa·s | viscosity (353.13 K): 0.185 ± 0.0037 mPa·s | mass density (353.16 K): 770.8 ± 2 kg/m3 | viscosity (358.16 K): 0.1771 ± 0.0036 mPa·s | mass density (363.11 K): 755.9 ± 2 kg/m3 | viscosity (363.15 K): 0.1696 ± 0.0035 mPa·s | viscosity (368.14 K): 0.1624 ± 0.0033 mPa·s | viscosity (368.16 K): 0.1623 ± 0.0033 mPa·s | viscosity (373.14 K): 0.1554 ± 0.0032 mPa·s | viscosity (378.15 K): 0.1486 ± 0.0031 mPa·s | viscosity (383.15 K): 0.142 ± 0.003 mPa·s | viscosity (383.16 K): 0.142 ± 0.003 mPa·s
